Reference: ChEMBL document CHEMBL1124191, “Design of rat renin inhibitory peptides” (J Med Chem, 1988)

Tests used:
Renin = target: T1, Renin (Homo sapiens, UniProt P00797); test: Compound was tested for its inhibitory activity against human plasma renin; format: cell-free
T1 sequence (P00797 whole entry): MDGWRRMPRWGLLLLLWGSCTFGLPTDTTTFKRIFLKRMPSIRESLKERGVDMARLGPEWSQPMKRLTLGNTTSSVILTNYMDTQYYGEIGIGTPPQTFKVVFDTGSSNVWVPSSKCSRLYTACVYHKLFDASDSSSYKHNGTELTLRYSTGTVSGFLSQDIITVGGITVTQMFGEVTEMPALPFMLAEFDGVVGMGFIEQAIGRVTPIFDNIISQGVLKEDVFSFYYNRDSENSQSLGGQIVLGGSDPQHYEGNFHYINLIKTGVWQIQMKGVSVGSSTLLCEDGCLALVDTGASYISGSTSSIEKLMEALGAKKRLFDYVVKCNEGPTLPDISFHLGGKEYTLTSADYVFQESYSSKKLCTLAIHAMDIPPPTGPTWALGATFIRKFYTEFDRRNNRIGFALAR

Rattus norvegicus [1] = test: Compound evaluated for decrease in mean arterial pressure at a minimal dose of 3 ug/kg in rats; format: functional, Artery
Rattus norvegicus [2] = test: Compound evaluated for decrease in mean arterial pressure at a minimal dose of 100 ug/kg in rats; format: functional, Artery

Structure (SMILES)	IC50 (Renin)	further results
CC(=O)N[C@@H](Cc1c[nH]cn1)C(=O)N1CCC[C@H]1C(=O)N[C@@H](Cc1ccccc1)C(=O)N[C@H](C(=O)N[C@@H](CC(C)C)[C@@H](O)CC(=O)N[C@@H](CC(C)C)C(=O)N[C@@H](Cc1ccccc1)C(N)=O)C(C)C		Decrease (Rattus norvegicus [1]): 4.9%
CC(=O)N[C@@H](Cc1cnc[nH]1)C(=O)N1CCC[C@@H]1C(=O)N[C@@H](Cc1ccccc1)C(=O)N[C@@H](Cc1cnc[nH]1)C(=O)N[C@@H](CC(C)C)[C@@H](O)CC(=O)N[C@@H](CC(C)C)C(=O)N[C@@H](Cc1ccccc1)C(N)=O	14 nM	
CC(=O)N[C@@H](Cc1c[nH]cn1)C(=O)N1CCC[C@H]1C(=O)N[C@@H](Cc1ccccc1)C(=O)N[C@@H](Cc1c[nH]cn1)C(=O)N[C@@H](CC(C)C)[C@@H](O)CC(=O)N[C@@H](CC(C)C)C(=O)N[C@@H](Cc1ccccc1)C(N)=O		Decrease (Rattus norvegicus [2]): 13.2%

The next lines start with results.

IC50 (Renin)	Structure (SMILES)	further results
3.2 nM	CC(=O)N[C@@H](Cc1cnc[nH]1)C(=O)N1CCC[C@@H]1C(=O)N[C@@H](Cc1ccccc1)C(=O)N[C@H](C(=O)N[C@@H](CC(C)C)[C@@H](O)CC(=O)N[C@@H](CC(C)C)C(=O)N[C@@H](Cc1ccccc1)C(N)=O)C(C)C	
15 nM	CC(=O)N[C@@H](Cc1cnc[nH]1)C(=O)N1CCC[C@@H]1C(=O)N[C@@H](Cc1ccccc1)C(=O)N[C@H](C(=O)N[C@@H](CC1CCCCC1)[C@@H](O)CC(=O)N[C@@H](CC(C)C)C(=O)N[C@@H](Cc1ccccc1)C(N)=O)C(C)C	
0.5 nM	CC(=O)N[C@@H](Cc1cnc[nH]1)C(=O)N1CCC[C@@H]1C(=O)N[C@@H](Cc1ccccc1)C(=O)N[C@@H](Cc1cnc[nH]1)C(=O)N[C@@H](CC1CCCCC1)[C@@H](O)CC(=O)N[C@@H](CC(C)C)C(=O)N[C@@H](Cc1ccccc1)C(N)=O	
